Reference: patent US10159726B2, “Peptides, combination of peptides and scaffolds for use in immunotherapeutic treatment of various cancers” (Immatics Biotechnologies GmbH, priority 2015, dated 2018)

Experiments:
[1] = test system: CD8+ T cells of healthy HLA-A*24+ donor; assay: In vitro T-cell priming (immunogenicity) with aAPCs loaded with HLA-A*24 peptide/MHC and anti-CD28, multimer readout; format: cell-based, human; details: for in vitro immunogenicity, Wells positive [%]: HLA-A*24 peptides, in vitro priming, multimer readout; for peptide-specific in vitro CD8+ T cell response, 2D multimer staining: healthy HLA-A*24+ donor, three cycles of stimulation, FIG. 5, frequencies only in the figure
Experimental: In order to obtain information regarding the immunogenicity of the TUMAPs of the present invention, the inventors performed investigations using an in vitro T-cell priming assay based on repeated stimulations of CD8+ T cells with artificial antigen presenting cells (aAPCs) loaded with peptide/MHC complexes and anti-CD28 antibody.
PBMCs and isolated CD8+ lymphocytes were incubated in T-cell medium (TCM) until use consisting of RPMI-Glutamax (Invitrogen, Karlsruhe, Germany) supplemented with 10% heat inactivated human AB serum (PAN-Biotech, Aidenbach, Germany), 100 U/ml Penicillin/100 μg/ml Streptomycin (Cambrex, Cologne, Germany), 1 mM sodium pyruvate (CC Pro, Oberdorla, Germany), 20 μg/ml Gentamycin (Cambrex). 2.5 ng/ml IL-7 (PromoCell, Heidelberg, Germany) and 10 U/ml IL-2 (Novartis Pharma, Nürnberg, Germany) were also added to the TCM at this step.
Generation of pMHC/anti-CD28 coated beads, T-cell stimulations and readout was performed in a highly defined in vitro system using four different pMHC molecules per stimulation condition and 8 different pMHC molecules per readout condition.
The purified co-stimulatory mouse IgG2a anti human CD28 Ab 9.3 (Jung et al., 1987) was chemically biotinylated using Sulfo-N-hydroxysuccinimidobiotin as recommended by the manufacturer (Perbio, Bonn, Germany). Beads used were 5.6 μm diameter streptavidin coated polystyrene particles (Bangs Laboratories, Illinois, USA).
800.000 beads/200 μl were coated in 96-well plates in the presence of 4×12.5 ng different biotin-pMHC, washed and 600 ng biotin anti-CD28 were added subsequently in a volume of 200 μl. Stimulations were initiated in 96-well plates by co-incubating […] CD8+ T cells with 2×10^5 washed coated beads in 200 μl TCM supplemented with 5 ng/ml IL-12 (PromoCell) for 3 days at 37° C. Half of the medium was then exchanged by fresh TCM supplemented with 80 U/ml IL-2 and incubating was continued for 4 days at 37° C. This stimulation cycle was performed for a total of three times. For the pMHC multimer readout using 8 different pMHC molecules per condition, a two-dimensional combinatorial coding approach was used as previously described (Andersen et al., 2012) with minor modifications encompassing coupling to 5 different fluorochromes. Finally, multimeric analyses were performed by staining the cells with Live/dead near IR dye (Invitrogen, Karlsruhe, Germany), CD8-FITC antibody clone SK1 (BD, Heidelberg, Germany) and fluorescent pMHC multimers. For analysis, a BD LSRII SORP cytometer equipped with appropriate lasers and filters was used. Peptide specific cells were calculated as percentage of total CD8+ cells. Evaluation of multimeric analysis was done using the FlowJo software (Tree Star, Oregon, USA). In vitro priming of specific multimer+ CD8+ lymphocytes was detected by comparing to negative control stimulations.
Exemplary flow cytometry results after TUMAP-specific multimer staining for 2 peptides of the invention are shown in FIG. 3 together with corresponding negative controls. Exemplary flow cytometry results after TUMAP-specific multimer staining for 7 peptides of the invention are shown in FIGS. 4 and 5 together with corresponding negative controls.

[2] = test system: HLA-A*24; assay: MHC binding assay, UV-ligand exchange with beta2m ELISA, HLA-A*24; design: species or system human; details: binding to HLA-A*24, UV-ligand exchange, β2m ELISA
Text: Candidate peptides for T cell based therapies according to the present invention were further tested for their MHC binding capacity (affinity). The individual peptide-MHC complexes were produced by UV-ligand exchange, where a UV-sensitive peptide is cleaved upon UV-irradiation, and exchanged with the peptide of interest as analyzed. Only peptide candidates that can effectively bind and stabilize the peptide-receptive MHC molecules prevent dissociation of the MHC complexes. To determine the yield of the exchange reaction, an ELISA was performed based on the detection of the light chain (β2m) of stabilized MHC complexes. The assay was performed as generally described in Rodenko et al. (Rodenko et al., 2006).
96 well MAXISorp plates (NUNC) were coated over night with 2 ug/ml streptavidin in PBS at room temperature, washed 4× and blocked for 1 h at 37° C. in 2% BSA containing blocking buffer. […] Peptide-MHC monomers of the UV-exchange reaction were diluted 100 fold in blocking buffer. Samples were incubated for 1 h at 37° C., washed four times, incubated with 2 ug/ml HRP conjugated anti-β2m for 1 h at 37° C., washed again and detected with TMB solution that is stopped with […]. Absorption was measured at 450 nm. Candidate peptides that show a high exchange yield (preferably higher than 50%, most preferred higher than 75%) are generally preferred for a generation and production of antibodies or fragments thereof, and/or T cell receptors or fragments thereof, as they show sufficient avidity to the MHC molecules and prevent dissociation of the MHC complexes.

181 (VYPPYLNYL; listed as Homo sapiens) [compound 181]
in vitro immunogenicity, Wells positive [%] [1]: ++++ (>=70% = ++++)

164 (HYVPATKVF; listed as Homo sapiens) [compound 164]
in vitro immunogenicity, Wells positive [%] [1]: + (<20% = +)

98 (VFPRLHNVLF; listed as Homo sapiens) [compound 98]
in vitro immunogenicity, Wells positive [%] [1]: + (<20% = +)

190 (LYSELTETL; listed as Homo sapiens) [compound 190]
in vitro immunogenicity, Wells positive [%] [1]: ++++ (>=70% = ++++)

VYEKNGYIYF (listed as Homo sapiens) [SEQ ID NO: 174]
peptide-specific in vitro CD8+ T cell response, 2D multimer staining [1]: peptide-specific in vitro CD8+ T cell responses

354 (VYNEQIRDLL; listed as Homo sapiens) [compound 354]
in vitro immunogenicity, Wells positive [%] [1]: + (<20% = +)

359 (NYGVLHVTF; listed as Homo sapiens) [compound 359]
in vitro immunogenicity, Wells positive [%] [1]: + (<20% = +) | Peptide exchange (MHC class I binding score, peptide exchange yield) [2]: ++++ (>=75% = ++++)

156 (YYMELTKLLL; listed as Homo sapiens) [compound 156]
in vitro immunogenicity, Wells positive [%] [1]: + (<20% = +) | Peptide exchange (MHC class I binding score, peptide exchange yield) [2]: ++++ (>=75% = ++++)

363 (SYAELGTTI; listed as Homo sapiens) [compound 363]
in vitro immunogenicity, Wells positive [%] [1]: + (<20% = +)

160 (RYGDGGSSF; listed as Homo sapiens) [compound 160]
in vitro immunogenicity, Wells positive [%] [1]: + (<20% = +)

177 (VYFKAGLDVF; listed as Homo sapiens) [compound 177]
in vitro immunogenicity, Wells positive [%] [1]: + (<20% = +)

106 (IYNETVRDLL; listed as Homo sapiens) [compound 106]
in vitro immunogenicity, Wells positive [%] [1]: + (<20% = +)

115 (RYLNKSFVL; listed as Homo sapiens) [compound 115]
in vitro immunogenicity, Wells positive [%] [1]: + (<20% = +)

166 (FYTLPFHLI; listed as Homo sapiens) [compound 166]
in vitro immunogenicity, Wells positive [%] [1]: ++++ (>=70% = ++++) | Peptide exchange (MHC class I binding score, peptide exchange yield) [2]: ++++ (>=75% = ++++)

157 (DYIPASGFALF; listed as Homo sapiens) [compound 157]
in vitro immunogenicity, Wells positive [%] [1]: + (<20% = +)

QYILAVPVL (listed as Homo sapiens) [SEQ ID NO: 99]
peptide-specific in vitro CD8+ T cell response, 2D multimer staining [1]: peptide-specific in vitro CD8+ T cell responses

358 (YYSEVPVKL; listed as Homo sapiens) [compound 358]
in vitro immunogenicity, Wells positive [%] [1]: ++++ (>=70% = ++++)

175 (LYSPVPFTL; listed as Homo sapiens) [compound 175]
in vitro immunogenicity, Wells positive [%] [1]: + (<20% = +)

VYVDDIYVI (listed as Homo sapiens) [SEQ ID NO: 142]
peptide-specific in vitro CD8+ T cell response, 2D multimer staining [1]: peptide-specific in vitro CD8+ T cell responses

344 (EYNSDLHQF; listed as Homo sapiens) [compound 344]
in vitro immunogenicity, Wells positive [%] [1]: + (<20% = +)

158 (IYEETRGVLKVF; listed as Homo sapiens) [compound 158]
in vitro immunogenicity, Wells positive [%] [1]: + (<20% = +)

167 (RYGFYYVEF; listed as Homo sapiens) [compound 167]
in vitro immunogenicity, Wells positive [%] [1]: ++++ (>=70% = ++++)

103 (NYIPVKNGKQF; listed as Homo sapiens) [compound 103]
in vitro immunogenicity, Wells positive [%] [1]: + (<20% = +)

105 (IYNETITDLL; listed as Homo sapiens) [compound 105]
in vitro immunogenicity, Wells positive [%] [1]: + (<20% = +)

180 (KYLQVVGMF; listed as Homo sapiens) [compound 180]
in vitro immunogenicity, Wells positive [%] [1]: + (<20% = +)

99 (QYILAVPVL; listed as Homo sapiens) [compound 99]
Peptide exchange (MHC class I binding score, peptide exchange yield) [2]: ++++ (>=75% = ++++)

293 (VYPHFSTTNLI; listed as Homo sapiens) [compound 293]
Peptide exchange (MHC class I binding score, peptide exchange yield) [2]: ++++ (>=75% = ++++)

220 (SYSEIKDFL; listed as Homo sapiens) [compound 220]
Peptide exchange (MHC class I binding score, peptide exchange yield) [2]: ++++ (>=75% = ++++)

142 (VYVDDIYVI; listed as Homo sapiens) [compound 142]
in vitro immunogenicity, Wells positive [%] [1]: ++++ (>=70% = ++++)

161 (KYPDIVQQF; listed as Homo sapiens) [compound 161]
in vitro immunogenicity, Wells positive [%] [1]: + (<20% = +)

210 (IYAGVGEFSF; listed as Homo sapiens) [compound 210]
Peptide exchange (MHC class I binding score, peptide exchange yield) [2]: ++++ (>=75% = ++++)

111 (VYVQILQKL; listed as Homo sapiens) [compound 111]
in vitro immunogenicity, Wells positive [%] [1]: + (<20% = +)

162 (KYTSYILAF; listed as Homo sapiens) [compound 162]
in vitro immunogenicity, Wells positive [%] [1]: + (<20% = +)

275 (KYGTLDVTF; listed as Homo sapiens) [compound 275]
Peptide exchange (MHC class I binding score, peptide exchange yield) [2]: ++++ (>=75% = ++++)

197 (IFTDIFHYL; listed as Homo sapiens) [compound 197]
Peptide exchange (MHC class I binding score, peptide exchange yield) [2]: ++++ (>=75% = ++++)

260 (VYMNVMTRL; listed as Homo sapiens) [compound 260]
Peptide exchange (MHC class I binding score, peptide exchange yield) [2]: ++++ (>=75% = ++++)

124 (TYKDYVDLF; listed as Homo sapiens) [compound 124]
Peptide exchange (MHC class I binding score, peptide exchange yield) [2]: + (<20% = +)

174 (VYEKNGYIYF; listed as Homo sapiens) [compound 174]
in vitro immunogenicity, Wells positive [%] [1]: ++++ (>=70% = ++++)

VYRVYVTTF (listed as Homo sapiens) [SEQ ID NO: 119]
peptide-specific in vitro CD8+ T cell response, 2D multimer staining [1]: peptide-specific in vitro CD8+ T cell responses

140 (RYLINSYDF; listed as Homo sapiens) [compound 140]
Peptide exchange (MHC class I binding score, peptide exchange yield) [2]: ++++ (>=75% = ++++)

248 (AFPTFSVQL; listed as Homo sapiens) [compound 248]
Peptide exchange (MHC class I binding score, peptide exchange yield) [2]: ++++ (>=75% = ++++)

155 (IYKWITDNF; listed as Homo sapiens) [compound 155]
Peptide exchange (MHC class I binding score, peptide exchange yield) [2]: ++++ (>=75% = ++++)

129 (KYIDYLMTW; listed as Homo sapiens) [compound 129]
Peptide exchange (MHC class I binding score, peptide exchange yield) [2]: ++++ (>=75% = ++++)

217 (IYISNSIYF; listed as Homo sapiens) [compound 217]
Peptide exchange (MHC class I binding score, peptide exchange yield) [2]: ++++ (>=75% = ++++)

252 (AFGQETNVPLNNF; listed as Homo sapiens) [compound 252]
Peptide exchange (MHC class I binding score, peptide exchange yield) [2]: ++++ (>=75% = ++++)

120 (GYIEHFSLW; listed as Homo sapiens) [compound 120]
Peptide exchange (MHC class I binding score, peptide exchange yield) [2]: ++++ (>=75% = ++++)

223 (TFITQSPLL; listed as Homo sapiens) [compound 223]
Peptide exchange (MHC class I binding score, peptide exchange yield) [2]: ++++ (>=75% = ++++)

353 (TYGKIDLGF; listed as Homo sapiens) [compound 353]
in vitro immunogenicity, Wells positive [%] [1]: + (<20% = +)
